The nature of test [1]: Antiproliferative activity against human KU812 cells expressing wild type Bcr-Abl after 72 hrs by CCK-8 assay. As to conditions: KU812, 72 h. For orientation: Tetrazolium dyes change colour on reduction, which living cells bring about.
Test [2] deals with K562. Put plainly: Antiproliferative activity against human K562 cells expressing wild type Bcr-Abl after 72 hrs by CCK-8 assay. As to conditions: K562, 72 h.
Test [3] deals with K562. Kind of test: Antiproliferative activity against imatinib-resistant human K562 cells expressing Bcr-Abl Q252H mutant after 72 hrs by CCK-8 assay. As to conditions: K562, 72 h.
A short description of a further test: cells. As to conditions: Mus musculus, BaF3, 72 h.
The nature of test [4]: Antiproliferative activity against mouse BA/F3 cells expressing wild type Bcr-Abl after 72 hrs by CCK-8 assay. As to conditions: BaF3, 72 h.

The results in this text go back to ChEMBL document CHEMBL2176963, “Design, synthesis, and biological evaluation of 3-(1H-1,2,3-triazol-1-yl)benzamide derivatives as Potent Pan Bcr-Abl inhibitors including the threonine(315)→isoleucine(315) mutant” (J Med Chem, 2012).

In general, IC50 refers to the concentration that gives 50% inhibition. A high value points to a need for much substance. With `Cc1ccc(C(=O)Nc2ccc(CN3CCN(C)CC3)c(C(F)(F)F)c2)cc1-n1cc(-c2cnc(N3CCCCC3)nc2)nn1`, the IC50 in test [1] amounted to 158 nM; with K562 [2] it was 798 nM; with K562 [3], 893 nM; in “cells”, 3590 nM; in test [4] it was 1240 nM.

Turning to `CN1CCN(Cc2ccc(NC(=O)c3ccc(F)c(-n4cc(-c5cnc6[nH]ncc6c5)nn4)c3)cc2C(F)(F)F)CC1`, the IC50 in test [1] turned out to be 0.1 nM; in the test on K562 [2], 0.24 nM; with K562 [3] it was 2.28 nM; in “cells”, 130 nM; in test [4], 3.9 nM.

For the compound `Cc1ccc(C(=O)Nc2ccc(CN3CCN(C)CC3)c(C(F)(F)F)c2)cc1-n1cc(-c2cnc(NC(C)C)nc2)nn1`, the half-inhibitory concentration (IC50) in test [1] is 1.44 nM; in the test on K562 [2] it was 7.26 nM; with K562 [3], 81.2 nM; in the test “cells”, 799 nM; in test [4], 32.8 nM.

`Cc1ccc(C(=O)Nc2ccc(CN3CCN(C)CC3)c(C(F)(F)F)c2)cc1-n1cc(-c2cnc3cccnn23)nn1`: the IC50 in test [1] was 14.6 nM; in the test with K562 [2], 35.8 nM; in the test on K562 [3], 1.41 nM; in “cells” it was > 10000 nM; in test [4] it was 27.4 nM.

In the case of `Cc1ccc(C(=O)Nc2ccc(CN3CCN(C)CC3)c(C(F)(F)F)c2)cc1-n1cc(-c2cnc3ccccn23)nn1`, the 50% inhibitory concentration (IC50) in test [1] came out at 0.16 nM; in the test on K562 [2], 0.63 nM; in the test on K562 [3] it was 1.85 nM; in the test “cells”, 178 nM; in test [4], 4.54 nM.

Take `Cc1ccc(C(=O)Nc2ccc(CN3CCN(C)CC3)c(C(F)(F)F)c2)cc1-n1cc(-c2cnc3ncnn3c2)nn1`: the 50% inhibitory concentration (IC50) in test [1] was 11.2 nM; in the test with K562 [2], 40.9 nM; in the test on K562 [3], 76.8 nM; in “cells”, 533 nM; in test [4] it was 316 nM.

`Cc1ccc(C(=O)Nc2ccc(CN3CCN(C)CC3)c(C(F)(F)F)c2)cc1-n1cc(-c2cnc(NC3CCCCC3)nc2)nn1`: the IC50 in test [1] turned out to be 1.57 nM; in the test on K562 [2], 7.04 nM; with K562 [3], 72.8 nM; in the test “cells”, 3630 nM; in test [4], 28.3 nM.

In the case of `CC(C)c1ccc(C(=O)Nc2ccc(CN3CCN(C)CC3)c(C(F)(F)F)c2)cc1-n1cc(-c2cnc3[nH]ncc3c2)nn1`, the half-maximal inhibitory concentration (IC50) in test [1] was 14.2 nM; with K562 [2] it was 74 nM; in the test with K562 [3], 219 nM; in “cells”, 2060 nM; in test [4], 420 nM.

On to `Cc1ccc(C(=O)Nc2ccc(CN3CC[C@H](N(C)C)C3)c(C(F)(F)F)c2)cc1-n1cc(-c2cnc3[nH]ncc3c2)nn1`, for which the IC50 was found to be 0.68 nM in test [1]; 0.32 nM in the test on K562 [2]; 2.24 nM with K562 [3]; 91.7 nM in the test “cells”; 3.01 nM in test [4].

As to `Cc1ccc(C(=O)Nc2ccc(CN3CCC(N4CCN(C)CC4)CC3)c(C(F)(F)F)c2)cc1-n1cc(-c2cnc3[nH]ncc3c2)nn1`, the IC50 was found to be 1.48 nM in test [1]; 1.25 nM with K562 [2]; 4.32 nM with K562 [3]; 873 nM in the test “cells”; 23.8 nM in test [4].

Consider `Cc1ccc(C(=O)Nc2ccc(CN3CCN(C)CC3)c(C(F)(F)F)c2)cc1-n1cc(-c2cnn3cccnc23)nn1`, for which the concentration for half-maximal inhibition (IC50) in test [1] is 1.51 nM; in the test on K562 [2], 2.45 nM; with K562 [3], 17.1 nM; in the test “cells”, 1440 nM; in test [4], 7.31 nM.

Consider `Cc1ccc(C(=O)Nc2ccc(CN3CCN(C)CC3)c(C(F)(F)F)c2)cc1-n1cc(-c2cnc3ncccn23)nn1`, for which the 50% inhibitory concentration (IC50) in test [1] amounted to 11.1 nM; with K562 [2], 3.87 nM; in the test on K562 [3], 16.2 nM; in the test “cells”, 8840 nM; in test [4] it was 47.9 nM.

With `CCc1ccc(C(=O)Nc2ccc(CN3CCN(C)CC3)c(C(F)(F)F)c2)cc1-n1cc(-c2cnc3[nH]ncc3c2)nn1`, the IC50 was found to be 0.39 nM in test [1]; 0.85 nM with K562 [2]; 8.96 nM with K562 [3]; 282 nM in the test “cells”; 4.04 nM in test [4].

Regarding `CN1CCN(Cc2ccc(NC(=O)c3ccc(C4CC4)c(-n4cc(-c5cnc6[nH]ncc6c5)nn4)c3)cc2C(F)(F)F)CC1`, the IC50 in test [1] amounted to 4.05 nM; in the test with K562 [2], 5.69 nM; in the test with K562 [3], 37.5 nM; in “cells”, 1160 nM; in test [4], 32.9 nM.

Take `Cc1ccc(C(=O)Nc2ccc(CN3CCN(C)CC3)c(C(F)(F)F)c2)cc1-n1cc(-c2cnc(NC3CC3)nc2)nn1`: the concentration for half-maximal inhibition (IC50) in test [1] came to 0.22 nM; in the test on K562 [2], 1.24 nM; in the test with K562 [3], 19.2 nM; in the test “cells”, 579 nM; in test [4] it was 3.01 nM.

For `Cc1ccc(C(=O)Nc2ccc(CN3CCC(N(C)C)CC3)c(C(F)(F)F)c2)cc1-n1cc(-c2cnc3[nH]ncc3c2)nn1`, the half-maximal inhibitory concentration (IC50) turned out to be 0.43 nM in test [1]; 0.67 nM in the test with K562 [2]; 6.56 nM in the test on K562 [3]; 527 nM in “cells”; 2.76 nM in test [4].

Regarding `Cc1ccc(Nc2ncc3c(n2)N(C)C(=O)N(c2cc(NC(=O)c4cccc(C(F)(F)F)c4)ccc2C)C3)cn1`, the half-maximal inhibitory concentration (IC50) in test [1] was 0.08 nM; in the test with K562 [2], 0.44 nM; with K562 [3], 2.6 nM; in the test “cells”, 6.18 nM; in test [4], 3.15 nM.

In the case of `Cc1ncn(-c2cc(NC(=O)c3ccc(C)c(-n4cc(-c5cnc6[nH]ncc6c5)nn4)c3)cc(C(F)(F)F)c2)n1`, the IC50 in test [1] came to 0.4 nM; with K562 [2], 2.9 nM; in the test with K562 [3] it was 34.2 nM; in the test “cells”, 620 nM; in test [4], 3.68 nM.

`Cc1ccc(C(=O)Nc2ccc(CN3C[C@H]4CN(C)C[C@H]4C3)c(C(F)(F)F)c2)cc1-n1cc(-c2cnc3[nH]ncc3c2)nn1`: the IC50 is 0.4 nM in test [1]; 0.25 nM in the test on K562 [2]; 3.55 nM in the test with K562 [3]; 473 nM in “cells”; 3.66 nM in test [4].

In the case of `CCNc1ncc(-c2cn(-c3cc(C(=O)Nc4ccc(CN5CCN(C)CC5)c(C(F)(F)F)c4)ccc3C)nn2)cn1`, the IC50 in test [1] came out at 0.2 nM; in the test on K562 [2] it was 1.26 nM; in the test on K562 [3], 20.2 nM; in “cells”, 405 nM; in test [4], 3.04 nM.

Turning to `CN1CCN(Cc2ccc(NC(=O)c3cccc(-n4cc(-c5cnc6[nH]ncc6c5)nn4)c3)cc2C(F)(F)F)CC1`, the IC50 amounted to 1.34 nM in test [1]; 0.67 nM in the test on K562 [2]; 10.8 nM in the test with K562 [3]; 728 nM in “cells”; 3.98 nM in test [4].

On to `Cc1ccc(C(=O)Nc2ccc(CN3CCCCC3)c(C(F)(F)F)c2)cc1-n1cc(-c2cnc3[nH]ncc3c2)nn1`, for which the IC50 came out at 0.47 nM in test [1]; 3.22 nM with K562 [2]; 31.1 nM in the test with K562 [3]; 3510 nM in the test “cells”; 5.39 nM in test [4].

Take `Cc1ccc(C(=O)Nc2ccc(CN3CCN(C)CC3)c(C(F)(F)F)c2)cc1-n1cc(-c2ccc3[nH]ccc3c2)nn1`: the 50% inhibitory concentration (IC50) in test [1] is 19.6 nM; in the test on K562 [2] it was 70.4 nM; with K562 [3], 800 nM; in the test “cells”, 999 nM; in test [4], 435 nM.

As for `Cc1ccc(C(=O)Nc2cc(-n3cncn3)cc(C(F)(F)F)c2)cc1-n1cc(-c2cnc3[nH]ncc3c2)nn1`, the IC50 in test [1] stood at 0.46 nM; in the test with K562 [2] it was 3.5 nM; with K562 [3], 21.9 nM; in “cells”, 652 nM; in test [4], 4.54 nM.

With `CN1CCN(Cc2ccc(NC(=O)c3ccc(Br)c(-n4cc(-c5cnc6[nH]ncc6c5)nn4)c3)cc2C(F)(F)F)CC1`, the IC50 in test [1] stood at 0.1 nM; in the test with K562 [2] it was 0.23 nM; with K562 [3], 1.49 nM; in “cells”, 46.4 nM; in test [4], 3.28 nM.

In the case of `Cc1ccc(C(=O)Nc2ccc(CN3CCN(C)CC3)c(C(F)(F)F)c2)cc1-n1cc(-c2cnc(N)nc2)nn1`, the half-maximal inhibitory concentration (IC50) in test [1] came to 0.2 nM; with K562 [2], 0.85 nM; in the test with K562 [3] it was 17.1 nM; in the test “cells”, 494 nM; in test [4] it was 3.35 nM.

`Cc1ccc(C(=O)Nc2ccc(CN3CCN(C)CC3)c(C(F)(F)F)c2)cc1-n1cc(-c2ccc3[nH]ncc3c2)nn1`: the IC50 in test [1] stood at 12.2 nM; in the test on K562 [2] it was 12.4 nM; in the test on K562 [3], 109 nM; in “cells”, 754 nM; in test [4], 56.2 nM.

Consider `Cc1ccc(C(=O)Nc2ccc(CN3CCCC3)c(C(F)(F)F)c2)cc1-n1cc(-c2cnc3[nH]ncc3c2)nn1`, for which the IC50 in test [1] stood at 0.19 nM; in the test with K562 [2], 0.66 nM; in the test with K562 [3] it was 12.1 nM; in “cells”, 939 nM; in test [4] it was 2.47 nM.

Regarding `Cc1cn(-c2cc(NC(=O)c3ccc(C)c(-n4cc(-c5cnc6[nH]ncc6c5)nn4)c3)cc(C(F)(F)F)c2)cn1`, the half-maximal inhibitory concentration (IC50) in test [1] is 0.73 nM; in the test on K562 [2] it was 3.37 nM; in the test on K562 [3], 25.7 nM; in “cells”, 656 nM; in test [4], 4.72 nM.

`CNc1ncc(-c2cn(-c3cc(C(=O)Nc4ccc(CN5CCN(C)CC5)c(C(F)(F)F)c4)ccc3C)nn2)cn1`: the IC50 in test [1] was 0.16 nM; in the test on K562 [2] it was 0.67 nM; in the test with K562 [3] it was 11 nM; in the test “cells” it was 299 nM; in test [4], 2.74 nM.

As to `Cc1ccc(C(=O)Nc2ccc(CN3CCN(C)CC3)c(C(F)(F)F)c2)cc1-n1cc(-c2cnc3[nH]ccc3c2)nn1`, the half-inhibitory concentration (IC50) in test [1] was 0.14 nM; in the test with K562 [2], 0.42 nM; with K562 [3], 3.89 nM; in the test “cells”, 66.9 nM; in test [4], 3.16 nM.

`Cc1ccc(C(=O)Nc2ccc(CN3CC[C@@H](N(C)C)C3)c(C(F)(F)F)c2)cc1-n1cc(-c2cnc3[nH]ncc3c2)nn1`: the half-maximal inhibitory concentration (IC50) in test [1] is 0.24 nM; with K562 [2], 0.31 nM; in the test on K562 [3] it was 3.15 nM; in the test “cells”, 544 nM; in test [4] it was 3.43 nM.
